Test results as given in patent US11564922B2, “Methods of treating crohn's disease and ulcerative colitis” (AbbVie Inc., priority 2017, dated 2023).
“Also recorded” adds a separate entry of the source.

How the values were obtained:
[1] = Solid state forms of upadacitinib: chemical and physical stability
[2] = Solid state forms of upadacitinib: hygroscopicity; assay type: physicochemical
[3] = system: subjects with moderately to severely active ulcerative colitis; assay: Example 20: Phase 3 maintenance study in ulcerative colitis (Study M14-234 Substudy 3), upadacitinib 15 mg or 30 mg QD vs placebo, 52 weeks; assay type: in vivo, human; conditions: for Corticosteroid-free remission, % of patients: patients in remission at completion of the 8-week induction studies; for Clinical remission (per Adapted Mayo Score) / Endoscopic improvement / Histologic-endoscopic mucosal improvement / Corticosteroid-free clinical remission: Week 52; for Corticosteroid-free clinical remission: among patients with clinical remission after 8 weeks of induction; for Clinical remission per Adapted Mayo Score at Week 52, % / Clinical remission at Week 52, Treatment Difference vs. PBO / Discontinued from Study Drug, Adverse events (primary reason), % / Discontinued from Study Drug, Lack of efficacy (primary reason), %: ITTA; for Clinical remission per Adapted Mayo Score at Week 52, % / Clinical remission at Week 52, Treatment Difference vs. PBO: NRI-C
[4] = Pharmacokinetic exposure of once-daily formulation versus immediate-release formulation (AUC, Cmin, Cmax); assay type: in vivo, human; conditions: 15 mg QD and 30 mg QD once-daily formulation versus 6 mg BID and 12 mg BID immediate-release formulation, respectively
Experimental: This study evaluated two maintenance doses of upadacitinib at 15 mg and 30 mg QD. […] In addition, all the currently available PK, pharmacodynamic, safety, and efficacy data from upadacitinib studies were used to support the selection of these doses. […] Following induction with 45 mg QD, doses of 15 mg QD and 30 mg QD are expected to maintain clinical and endoscopic response while having better long-term safety profile compared to higher doses. Doses of 15 mg QD and 30 mg QD for up to 240 weeks were expected to be efficacious with an acceptable safety profile.

[5] = system: subjects with moderately to severely active ulcerative colitis; assay: Example 19: Phase 3 induction study in ulcerative colitis (Study M14-675), upadacitinib 45 mg QD vs placebo
Experimental: The primary objective of this study is to evaluate the efficacy and safety of upadacitinib 45 mg once daily (QD) compared to placebo in inducing clinical remission (per Adapted Mayo score) in subjects with moderately to severely active ulcerative colitis (UC).
The secondary objectives of the study are to evaluate the efficacy of upadacitinib 45 mg QD comparing with placebo in ranked secondary endpoints of achieving endoscopic improvement, endoscopic remission, clinical response per Adapted Mayo Score, clinical response per Partial Adapted Mayo score, histologic-endoscopic mucosal improvement, no bowel urgency, no abdominal pain, histologic improvement, mucosal healing, and change in IBDQ total score and FACIT-F score.
Males and females between 18 and 75 years of age with a diagnosis of moderately to severely active UC. […] The study will consist of a mixed population: biologic-inadequate responders (bio-IR) and non-biologic-inadequate responders (non-bio-IR).
The randomization will be stratified by bio-IR status (bio-IR vs non-bio-IR), corticosteroid use (yes or no) and Adapted Mayo score (≤7 or >7) at Baseline. Within bio-IR, the randomization will be further stratified by number of prior biologic treatments (≤1 or >1). Within non-bio-IR, the randomization will be further stratified by previous biologic use (yes or no).
The blind from Part 1 will not be broken for the duration of the study as subjects will be assessed as clinical non-responders at the 8 Week Visit of Part 1 and will be moved to Part 2 for further treatment in the study without identifying their initial treatment assignment. All eligible subjects entering Part 2 will receive open-label treatment with upadacitinib 45 mg QD for 8 additional weeks (until Week 16). At Week 16, an endoscopy will be performed to evaluate the treatment effect. A flexible rectosigmoidoscopy is recommended. However, the use of flexible sigmoidoscopy or colonoscopy is at the investigators' discretion based on local practice.
For the assessment of the clinical endpoints, the stool frequency and the rectal bleeding subscore will be calculated as an average of the entries recorded into the subject's diary from the most recent consecutive 3-day period prior to each study visit. If diary entries from the 3 consecutive days prior to the visit are not available, the 3 most recent consecutive days in the last 10 days will be utilized. If data is not available for 3 consecutive days, the average of the entries from the most recent 3 non-consecutive days in the last 10 days will be utilized. Clinical endpoints of abdominal pain and bowel urgency from subject diaries will be measured at the same time period as the stool frequency and rectal bleeding subscores. Proportion of subjects who report no abdominal pain and proportion of subjects who report no bowel urgency in the 3 days will be estimated.
Subjects will undergo a full colonoscopy with biopsy for histologic assessment during Screening with local investigator assessment for Mayo endoscopic subscore for initial eligibility assessment, confirmed by a central reader prior to randomization. At end of treatment (Week 8 in Part 1) a full colonoscopy or flexible sigmoidoscopy, depending on the extent of disease at Screening, will be performed.
The endoscopic subscore result from the central reader during the screening period will be used to evaluate the eligibility of a subject to enroll in the study and for all efficacy assessments at Week 8 of Part 1.
Male or female between 16 and 75 years of age at Baseline.

[6] = system: subjects with moderately to severely active CD; assay: Study M13-740: Phase 2 induction study, immediate-release upadacitinib vs placebo; assay type: in vivo, human; conditions: induction phase of Study M13-740, immediate-release formulation, doses of 6 mg BID and higher
[7] = Solid state forms of upadacitinib: solubility and bioavailability; assay type: physicochemical

**Q.** For `CC[C@@H]1CN(C(=O)NCC(F)(F)F)C[C@@H]1c1cnc2cnc3[nH]ccc3n12` [Freebase Anhydrate Form D], which Physical stability [1] is on record?
**A.** Its Physical stability is “metastable relative to Freebase Hydrate Form C”.

**Q.** What about the Hygroscopicity [2] of the same compound?
**A.** The Hygroscopicity was “reversibly hygroscopic”.

**Q.** And the “Water content (hygroscopicity)” value ([2]; 90% RH at 25° C.)?
**A.** Its value is “up to 1.8%”.

**Q.** For `CC[C@@H]1CN(C(=O)NCC(F)(F)F)C[C@@H]1c1cnc2cnc3[nH]ccc3n12.CC[C@@H]1CN(C(=O)NCC(F)(F)F)C[C@@H]1c1cnc2cnc3[nH]ccc3n12.O` [Freebase Hydrate Form C], which Chemical stability [1] is on record?
**A.** Its Chemical stability is “good chemical stability”.

**Q.** And the Hygroscopicity [2]?
**A.** The Hygroscopicity was “low hygroscopicity”.

**Q.** With `CC[C@@H]1CN(C(=O)NCC(F)(F)F)C[C@@H]1c1cnc2cnc3[nH]ccc3n12` [upadacitinib, (3S,4R)-3-ethyl-4-(3H-imidazo[1,2-a]pyrrolo[2,3-e]pyrazin-8-yl)-N-(2,2,2-trifluoroethyl)pyrrolidine-1-carboxamide] as the compound, how does the “Clinical remission per Adapted Mayo score at Week 52, proportion of subjects” value ([3]; 15 mg QD maintenance after 8 weeks 45 mg QD induction) read?
**A.** Its value is 42.3%.

**Q.** What about the Safety and tolerability ([3]; 15 mg and 30 mg QD, 52 weeks) of the same compound?
**A.** Its Safety and tolerability is “generally safe and well tolerated”.

**Q.** And the “Corticosteroid-free remission, % of patients” value ([3]; 15 mg cohort)?
**A.** The value was 57%.

**Q.** What about the “Clinical remission (per Adapted Mayo Score)” value ([3]; 15 mg once daily (n = 148)) of the same compound?
**A.** Its value is 42%.

**Q.** And the Endoscopic improvement ([3]; 15 mg once daily (n = 148))?
**A.** Its Endoscopic improvement is 49%.

**Q.** And the Histologic-endoscopic mucosal improvement ([3]; 15 mg once daily (n = 148))?
**A.** The Histologic-endoscopic mucosal improvement was 35%.

**Q.** What about the Corticosteroid-free clinical remission ([3]; 15 mg once daily, N = 47) of the same compound?
**A.** Its Corticosteroid-free clinical remission is 57%.

**Q.** What about the “Clinical remission per Adapted Mayo score at Week 52, proportion of subjects” value ([3]; 30 mg QD maintenance after 8 weeks 45 mg QD induction) of the same compound?
**A.** The value was 51.7%.

**Q.** What about the “Corticosteroid-free remission, % of patients” value ([3]; 30 mg cohort) of the same compound?
**A.** Its value is 68%.

**Q.** And the “Clinical remission (per Adapted Mayo Score)” value ([3]; 30 mg once daily (n = 154))?
**A.** Its value is 52%.

**Q.** And the Endoscopic improvement ([3]; 30 mg once daily (n = 154))?
**A.** Its Endoscopic improvement is 62%.

**Q.** And the Histologic-endoscopic mucosal improvement ([3]; 30 mg once daily (n = 154))?
**A.** The Histologic-endoscopic mucosal improvement was 49%.

**Q.** And the Corticosteroid-free clinical remission ([3]; 30 mg once daily, N = 58)?
**A.** The Corticosteroid-free clinical remission was 68%.

**Q.** What about the “Clinical response per Partial Adapted Mayo Score and clinical remission rate per Partial Mayo Score over time” value ([3]; both upadacitinib groups (15 mg, 30 mg)) of the same compound?
**A.** Its value is “maintained over time until Week 52”.

**Q.** What about the “Upadacitinib pharmacokinetics, induction vs maintenance periods” value ([3]; subjects with UC) of the same compound?
**A.** The value was “consistent between the induction and maintenance periods”.

**Q.** What about the “daily area under the concentration-time curve (AUC)” value [4] of the same compound?
**A.** Its value is “equivalent”.

**Q.** And the “minimum plasma concentration (Cmin) and maximum plasma concentration (Cmax)” value [4]?
**A.** Its value is “comparable”.

**Q.** What about the “Rates of severe adverse events and AEs leading to study drug discontinuation compared to placebo” value ([5]; 45 mg) of the same compound?
**A.** Its value is “lower”.

**Q.** What about the “Onset of clinical response per Partial Adapted Mayo Score” value ([5]; 45 mg QD) of the same compound?
**A.** Its value is “as early as Week 2”.

**Q.** What about the “Patients with clinical response at week 8” value ([5]; 45 mg QD) of the same compound?
**A.** Its value is “approximately 75%”.

**Q.** What about the “Rates of neutropenia, lymphopenia, hepatic disorder, and CPK elevation compared to placebo” value ([5]; 45 mg QD) of the same compound?
**A.** Its value is “higher”.

**Q.** And the “Tolerability of eight-week induction treatment” value ([5]; 45 mg QD)?
**A.** Its value is “well tolerated”.

**Q.** And the “Week 8 non-responding patients with clinical response by 16 weeks” value ([5]; 45 mg QD, additional 8 weeks)?
**A.** The value was “approximately 50%”.

**Q.** And the Deaths ([5]; 45 mg QD, 8 weeks)?
**A.** The Deaths was “No deaths were reported”.

**Q.** And the “Primary and ranked secondary endpoints vs placebo” value ([5]; 45 mg QD, 8 weeks, all p<0.001)?
**A.** Its value is “met primary and all ranked secondary endpoints”.

**Q.** What about the “Proportion of subjects achieving clinical remission per Adapted Mayo score at Week 8” value ([5]; 45 mg QD, SFS ≤1 and not greater than baseline, RBS 0, endoscopic subscore ≤1) of the same compound?
**A.** Its value is 33.5%.

**Q.** And the “clinical and endoscopic efficacy compared to placebo” value [6]?
**A.** The value was “demonstrated the clinical and endoscopic efficacy”.

**Q.** Which Solubility [7] does the source give for `CC[C@@H]1CN(C(=O)NCC(F)(F)F)C[C@@H]1c1cnc2cnc3[nH]ccc3n12` [Amorphous Freebase] here?
**A.** The Solubility was “greater solubility”.

**Q.** What about the Chemical stability [1] of the same compound?
**A.** Its Chemical stability is “acceptable chemical stability”.

**Q.** And the “Stability to light and peroxide” value [1]?
**A.** The value was “acceptable stability to light and peroxide”.

**Q.** And the Hygroscopicity [2]?
**A.** Its Hygroscopicity is “hygroscopic”.

**Q.** And the “Water content (hygroscopicity)” value ([2]; 25° C./90% relative humidity)?
**A.** Its value is at most 12 % by weight.

**Q.** With `CC[C@@H]1CN(C(=O)NCC(F)(F)F)C[C@@H]1c1cnc2cnc3[nH]ccc3n12` [Freebase Hydrate Form B] as the compound, how does the Physical stability [1] read?
**A.** The Physical stability was “not physically stable; also recorded: not stable after isolation at ambient conditions”.

**Q.** For `CC[C@@H]1CN(C(=O)NCC(F)(F)F)C[C@@H]1c1cnc2cnc3[nH]ccc3n12` [UPA, upadacitinib], which “Clinical remission per Adapted Mayo Score at Week 52, %” value ([3]; Bio-IR, UPA 15 mg QD N = 71) is on record?
**A.** The value was 40.5%.

**Q.** And the “Clinical remission at Week 52, Treatment Difference vs. PBO” value ([3]; Bio-IR, UPA 15 mg)?
**A.** Its value is 33.0%.

**Q.** And the “Clinical remission per Adapted Mayo Score at Week 52, %” value ([3]; Bio-IR, UPA 30 mg QD N = 73)?
**A.** Its value is 49.1%.

**Q.** And the “Clinical remission at Week 52, Treatment Difference vs. PBO” value ([3]; Bio-IR, UPA 30 mg)?
**A.** Its value is 41.6%.

**Q.** And the “Clinical remission per Adapted Mayo Score at Week 52, %” value ([3]; Non-Bio-IR, UPA 15 mg QD N = 77)?
**A.** Its value is 43.9%.

**Q.** And the “Clinical remission at Week 52, Treatment Difference vs. PBO” value ([3]; Non-Bio-IR, UPA 15 mg)?
**A.** The value was 26.3%.

**Q.** And the “Clinical remission per Adapted Mayo Score at Week 52, %” value ([3]; Non-Bio-IR, UPA 30 mg QD N = 81)?
**A.** The value was 54.0%.

**Q.** What about the “Clinical remission at Week 52, Treatment Difference vs. PBO” value ([3]; Non-Bio-IR, UPA 30 mg) of the same compound?
**A.** Its value is 36.3%.

**Q.** And the “Discontinued from Study Drug, Adverse events (primary reason), %” value ([3]; UPA 15 mg QD (N = 148))?
**A.** The value was “(2.7) %”.

**Q.** What about the “Discontinued from Study Drug, Lack of efficacy (primary reason), %” value ([3]; UPA 15 mg QD (N = 148)) of the same compound?
**A.** The value was “(23.6) %”.

**Q.** And the “Discontinued from Study Drug, Adverse events (primary reason), %” value ([3]; UPA 30 mg QD (N = 154))?
**A.** The value was “(5.2) %”.

**Q.** What about the “Discontinued from Study Drug, Lack of efficacy (primary reason), %” value ([3]; UPA 30 mg QD (N = 154)) of the same compound?
**A.** The value was “(7.8) %”.
